Patent US20250352512A2, “C4-S[…] DERIVATIVES AND METHODS OF USING” (priority 2022, published 2025)
Where two headings read alike, the source gives them in different places.

Tests used:
[1] = target: T1, 5-HT2A receptor (5-HT2AR) (Mus musculus, UniProt P35363); experiment: Drug-induced Head Twitch Response (HTR) in mice; assay type: in vivo; details: C57BL/6-Elite mice, i.p. 1 mg/kg, 15-to-30-minute window following administration
T1 construct: tissue Charles River; host or cells: living C57BL/6-Elite mice (neuronal receptor)
T1 sequence (P35363 whole entry): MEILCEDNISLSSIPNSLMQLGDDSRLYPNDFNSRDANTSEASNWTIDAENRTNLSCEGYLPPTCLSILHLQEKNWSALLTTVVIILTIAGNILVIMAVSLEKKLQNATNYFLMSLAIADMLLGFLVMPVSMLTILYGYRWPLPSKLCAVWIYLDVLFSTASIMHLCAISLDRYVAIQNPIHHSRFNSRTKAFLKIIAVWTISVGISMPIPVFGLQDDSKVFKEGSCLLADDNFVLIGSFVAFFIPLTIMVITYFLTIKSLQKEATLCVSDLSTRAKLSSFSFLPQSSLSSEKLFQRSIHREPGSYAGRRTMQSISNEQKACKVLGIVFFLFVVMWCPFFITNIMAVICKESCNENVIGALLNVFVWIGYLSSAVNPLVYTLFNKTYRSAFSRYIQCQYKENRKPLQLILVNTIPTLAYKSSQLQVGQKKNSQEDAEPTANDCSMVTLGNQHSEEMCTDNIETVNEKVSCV

5-HT1A receptor = target: T2, 5-HT1A receptor (Homo sapiens, UniProt P08908); assay type: cell-based; details: for 5-HT1A receptor modulation: comparison of +5-HT1A with -5-HT1A cultures, 4 mM forskolin
T2 construct: host or cells: CHO-K1
T2 sequence (P08908 1-422): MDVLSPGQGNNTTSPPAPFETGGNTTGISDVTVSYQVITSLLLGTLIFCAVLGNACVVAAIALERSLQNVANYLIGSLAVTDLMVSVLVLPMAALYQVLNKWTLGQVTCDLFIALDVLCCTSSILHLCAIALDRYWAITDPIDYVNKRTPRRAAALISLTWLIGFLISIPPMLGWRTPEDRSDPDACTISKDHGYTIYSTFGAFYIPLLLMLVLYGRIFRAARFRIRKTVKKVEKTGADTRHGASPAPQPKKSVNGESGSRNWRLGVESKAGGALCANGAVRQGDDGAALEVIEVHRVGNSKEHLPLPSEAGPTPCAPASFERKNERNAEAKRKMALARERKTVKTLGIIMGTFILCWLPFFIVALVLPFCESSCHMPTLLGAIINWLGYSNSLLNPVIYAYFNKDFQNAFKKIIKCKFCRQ

[2] = Metabolic stability / psilocin release in human AB serum; assay type: in vitro ADME; details: 10% human AB serum
Description: (§1) A fundamental evaluation in drug development is the assessment of absorption, distribution, metabolism, excretion, and pharmacokinetics (ADME/PK) (Eddershaw et al., 2000, Drug Discovery Today 5(9): 409-414). […] Drug stability upon exposure to human liver microsomes and liver S9 cellular fractions is a common in vitro assay to approximate in vivo, liver-based drug metabolism (Richardson et al., 2016 Drug Metabolism Letters 10:83-90). First-pass metabolism is also often approximated in vitro using intestinal microsome and cellular S9 fractions (Hatley et al., 2017, Biopharmaceuticals & Drug Disposition, 38(2):155-160). […] Supernatants were analyzed for the presence of candidate prodrugs (parent molecule) and psilocin (the predicted metabolite) using Orbitrap LC-MS (Thermo Scientific) using previously described methods (Menendez-Perdomo et al., 2021, J. Mass Spectrom., 56: e4683). […] Assay concentrations (μM) of both parent ‘prodrug’ molecule and psilocin metabolite, as quantified through LC-MS using routine standard curve procedures, were plotted as functions of assay time (minutes). The metabolism rate (TI/2) was determined from the metabolism curve plot using the one phase decay feature of GraphPad PRISM software (Version 9.2.0). The quantity of parent prodrug at time zero was set as 100%. […]

[3] = Stability assay in enzyme-free control buffer; assay type: in vitro ADME; details: enzyme-free buffer pH 7.4, 37° C., 2 hours
Description: as §1

[4] = Metabolic stability / psilocin release in human liver microsomes; assay type: in vitro ADME; details: 2.5 μM, 400 μg/ml HLM, NADPH, 37° C.
Description: as §1

[5] = Metabolic stability / psilocin release in human liver S9 fractions; assay type: in vitro ADME; details: 2.5 μM, 400 μg/ml HLS9, NADPH, 37° C.
Description: as §1

5-HT2A receptor = 5-HT2A receptor (Homo sapiens, UniProt P28223); experiment: [3H]ketanserin radioligand competition binding assay (SPA); details: fixed (1 nM) [3H]ketanserin, membranes containing 5-HT2A
Sequence of 5-HT2A receptor (P28223 whole entry): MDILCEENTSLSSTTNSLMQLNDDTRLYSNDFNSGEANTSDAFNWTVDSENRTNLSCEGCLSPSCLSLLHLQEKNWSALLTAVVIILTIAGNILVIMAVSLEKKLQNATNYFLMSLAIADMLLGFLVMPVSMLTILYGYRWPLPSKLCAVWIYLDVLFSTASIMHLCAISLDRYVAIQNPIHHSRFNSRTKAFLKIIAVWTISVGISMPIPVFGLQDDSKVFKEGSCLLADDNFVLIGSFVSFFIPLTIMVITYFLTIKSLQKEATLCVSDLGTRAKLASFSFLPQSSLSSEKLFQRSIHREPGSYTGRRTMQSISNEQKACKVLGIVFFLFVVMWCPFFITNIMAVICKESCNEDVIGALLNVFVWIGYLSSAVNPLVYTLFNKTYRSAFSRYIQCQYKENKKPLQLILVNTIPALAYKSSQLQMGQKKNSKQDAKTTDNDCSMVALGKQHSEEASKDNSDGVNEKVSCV

[6] = +5-HT1A cells stimulated with 4 mM forskolin

## CCC(=O)OCOc1cccc2c1c(CCN(C)C)cn2C(=O)CC [D(XIX)]
[1]
  incidences of Head Twitch Response (HTR) relative to vehicle: Elevated incidences of HTR
5-HT1A receptor
  5-HT1A receptor modulation: suggests significant receptor modulation

## CN(C)CCc1c[nH]c2cccc(OP3(=O)OCC(C)(C)CO3)c12 [F(II)]
[1]
  incidences of Head Twitch Response (HTR) relative to vehicle: Elevated incidences of HTR
5-HT1A receptor
  5-HT1A receptor modulation: reveals receptor modulation

## CCCCCCOC(=O)Oc1cccc2[nH]cc(CCN(C)C)c12 [B(V)]
5-HT1A receptor
  5-HT1A receptor modulation: suggests no receptor modulation

## NCCc1c[nH]c2ccc(O)cc12 [serotonin, reference compound]
5-HT1A receptor
  cAMP levels with increasing doses of ligand: reduction in cAMP levels

## CN(C)CCc1c[nH]c2cccc(OP(=O)(O)O)c12 [psilocybin]
[2]
  stability and conversion to psilocin in serum: stable in serum with no conversion to psilocin
[3]
  stability in assay buffer: stability of psilocybin was confirmed in assay buffer
[4]
  stability and conversion to psilocin in liver fractions (HLM): stable in liver fractions with no conversion to psilocin
[5]
  stability and conversion to psilocin in liver fractions (HLS9): stable in liver fractions with no conversion to psilocin

## N[C@@H](Cc1c[nH]c2ccccc12)C(=O)O [tryptophan, reference compound]
5-HT2A receptor
  competition binding at the 5-HT2A receptor: no binding
5-HT1A receptor; [6]
  cAMP levels with increasing doses of ligand: no reduction in cellular cAMP levels

## CN(C)CCc1c[nH]c2cccc(OC(=O)OCC(Cl)(Cl)Cl)c12 [B(IV)]
[1]
  incidences of Head Twitch Response (HTR) relative to vehicle: Elevated incidences of HTR
5-HT1A receptor
  5-HT1A receptor modulation: suggests no receptor modulation

## CN(C)CCc1c[nH]c2cccc(O[Si](c3ccccc3)(c3ccccc3)C(C)(C)C)c12 [A(III)]
[1]
  incidences of Head Twitch Response (HTR) relative to vehicle: Elevated incidences of HTR
5-HT1A receptor
  5-HT1A receptor modulation: suggests receptor modulation at higher ligand concentrations

## CN(C)CCc1c[nH]c2cccc(O)c12 [psilocin, reference compound]
5-HT2A receptor
  competition binding at the 5-HT2A receptor: binding
5-HT1A receptor; [6]
  cAMP levels with increasing doses of ligand: reduction in cAMP levels
